For data set [1], the system named is Staphylococcus aureus. Put plainly: Antibacterial activity against Staphylococcus aureus at 10 ug after 12 hrs. Format: functional.
Data set [2] has as its system Pseudomonas fluorescens. Put plainly: Antibacterial activity against Pseudomonas fluorescens at 3 ug after 8 hrs. The data set is classed as functional.
Data set [3] has as its system Escherichia coli. Put plainly: Antibacterial activity against Escherichia coli at 3 ug after 8 hrs. Format: functional.
Data set [4] can be described thus: (§1) Cytotoxicity against human MCF7 cells after 4 days by MTT assay. The note with it: human, MCF7 cells; read-out: MIC. The data set is classed as cell-based.
The subject of the next data set is MCF7. The description is as §1. The data set is classed as cell-based. The note with it: Homo sapiens, MCF7, 96 h.
The test system of data set [5] is Escherichia coli. Put plainly: Antibacterial activity against Escherichia coli at 10 ug after 8 hrs. Format: functional.
The subject of data set [6] is Bacillus subtilis. Put plainly: Antibacterial activity against Bacillus subtilis at 3 ug after 12 hrs. Format: functional.
Another data set concerns A549. Put plainly: (§2) Cytotoxicity against human A549 cells after 3 days by MTT assay. The data set is classed as cell-based. The conditions noted are these: Homo sapiens, A549, 72 h.
The nature of data set [7]: as §2. The data set is classed as cell-based. The note with it: human, A549 cells; read-out: MIC.
Data set [8] relates to Bacillus subtilis. Description: Antibacterial activity against Bacillus subtilis at 10 ug after 12 hrs. The data set is classed as functional.
The test system of data set [9] is Mycobacterium tuberculosis. Put plainly: Antitubercular activity against dormant Mycobacterium tuberculosis H37Ra at 10 ug after 12 days by XTT-Menadione assay. Format: functional. On the technique in general: Tetrazolium dyes change colour on reduction, which living cells bring about.
Data set [10] concerns Pseudomonas fluorescens. Description: Antibacterial activity against Pseudomonas fluorescens at 30 ug after 8 hrs. The data set is classed as functional.
Data set [11] deals with Mycolicibacterium smegmatis. Put plainly: Antitubercular activity against dormant Mycobacterium smegmatis MC2 155 at 30 ug after 12 days by XTT-Menadione assay. Format: functional, str. MC2 155.
In data set [12] the test system is Bacillus subtilis. Description: Antibacterial activity against Bacillus subtilis at 30 ug after 12 hrs. The data set is classed as functional.
Data set [13] concerns Staphylococcus aureus. Description: Antibacterial activity against Staphylococcus aureus at 30 ug after 12 hrs. The data set is classed as functional.
The subject of data set [14] is Staphylococcus aureus. Description: Antibacterial activity against Staphylococcus aureus at 3 ug after 12 hrs. Format: functional.
Data set [15] has as its system Escherichia coli. Description: Antibacterial activity against Escherichia coli at 30 ug after 8 hrs. Format: functional.
The nature of data set [16]: Cytotoxicity against human PANC1 cells after 5 days by MTT assay. The data set is classed as cell-based, PANC-1. The conditions noted are these: for IC50: Homo sapiens, PANC-1, 120 h; for MCC at 120 h: human, PANC1 cells, read-out: MIC.
Data set [17] is described as follows: Cytotoxicity against human THP1 cells after 5 days by MTT assay. Format: cell-based, THP-1. The conditions noted are these: for IC50: Homo sapiens, THP-1, 120 h; for MCC at 120 h: human, THP1 cells, read-out: MIC.
Data set [18] concerns Mycobacterium tuberculosis. Put plainly: Antitubercular activity against dormant Mycobacterium tuberculosis H37Ra at 30 ug after 12 days by XTT-Menadione assay. Format: functional.
Data set [19] concerns Mycolicibacterium smegmatis. Put plainly: Antitubercular activity against dormant Mycobacterium smegmatis MC2 155 at 3 ug after 12 days by XTT-Menadione assay. Format: functional, str. MC2 155.
Data set [20] concerns Mycobacterium tuberculosis. Description: Antitubercular activity against dormant Mycobacterium tuberculosis H37Ra at 3 ug after 12 days by XTT-Menadione assay. Format: functional.
In data set [21] the test system is Pseudomonas fluorescens. Put plainly: Antibacterial activity against Pseudomonas fluorescens at 10 ug after 8 hrs. The data set is classed as functional.
Data set [22] relates to Mycolicibacterium smegmatis. Put plainly: Antitubercular activity against dormant Mycobacterium smegmatis MC2 155 at 10 ug after 12 days by XTT-Menadione assay. The data set is classed as functional, str. MC2 155.
The subject of data set [23] is Mycobacterium tuberculosis. Description: Antitubercular activity against dormant Mycobacterium tuberculosis H37Ra after 12 days by XTT-Menadione assay. Format: functional, organism-based. The conditions noted are these: 288 h.

Molecules are shown by their SMILES. ≈ marks a conversion by molar mass, not a printed value.

For orientation: IC50 means the midpoint of a concentration-inhibition curve. A high value points to a need for much substance. One may read the MIC as the smallest concentration in the dilution series that meets the test's criterion for growth inhibition. A lower MIC goes with inhibition by little substance. As for `Nc1nccnc1C(=O)NN1C(=O)CSC1c1ccccc1` (stereo unspecified), the “inhibition (INH)” value with Staphylococcus aureus [1] is 32.35%; in the data set on Pseudomonas fluorescens [2] it was 25.98%; with Escherichia coli [3], -94.8%; with Escherichia coli [5], -71.2%; in the data set with Bacillus subtilis [6], -4.3%; in the data set on Bacillus subtilis [8], -6.1%. Further, the “inhibition (INH)” value in data set [9] is 71.09%; with Pseudomonas fluorescens [10] it was 30.72%; in data set [11], -60.9565%; in the data set on Bacillus subtilis [12] it was 19.82%; in the data set with Staphylococcus aureus [13] it was -1.45%; with Staphylococcus aureus [14], -20.13%. For the same molecule, the “inhibition (INH)” value with Escherichia coli [15] is reported as 8.78%; in [18], 91.57%; in data set [19] it was 43.05%; in [20] it was 70.02%; in the data set on Pseudomonas fluorescens [21], 3.29%; in data set [22] it was 52.56%. For the same molecule, the MCC at 96 h in data set [4] was greater than 100 µg/mL. For the same molecule, the IC50 in the data set with MCF7 is 81.3 µg/mL (≈ 258 µM); in the data set on A549 it was 77 µg/mL (≈ 244 µM); in data set [16], greater than 100 µg/mL; in data set [17] it was 89.6 µg/mL (≈ 284 µM); in [23] it was 0.909 µg/mL (≈ 2.88 µM). Also, the MCC at 72 h in [7] was greater than 100 µg/mL. For the same molecule, the MCC at 120 h in data set [16] and in data set [17] was greater than 100 µg/mL in each case. Besides, 28 µg/mL (≈ 88.9 µM) was the least that counted as inhibitory in data set [23] (MIC).

As to `O=C(NN1C(=O)CSC1c1ccc(O)cc1)c1cnccn1` (stereo unspecified), the “inhibition (INH)” value in the data set with Staphylococcus aureus [1] is 16.31%; in the data set with Pseudomonas fluorescens [2] it was 9.87%; in the data set with Escherichia coli [3], 41.07%; in the data set on Escherichia coli [5], 49.76%; in the data set on Bacillus subtilis [6], -5.94%; in the data set on Bacillus subtilis [8], -7.31%. Also, the “inhibition (INH)” value came to 45.24% in [9]; 27.67% in the data set on Pseudomonas fluorescens [10]; 45.5719% in data set [11]; 1.8% with Bacillus subtilis [12]; 30.2% with Staphylococcus aureus [13]; 24.23% in the data set with Staphylococcus aureus [14]. Also, the “inhibition (INH)” value with Escherichia coli [15] came to 39.38%; in data set [18] it was 53.37%; in data set [19], 28.83%; in data set [20], 40.52%; with Pseudomonas fluorescens [21] it was 5.678%; in data set [22], 31.9215%.

Consider `Cc1cnc(C(=O)NN2C(=O)CSC2c2ccc(O)cc2)cn1` (stereo unspecified), for which the “inhibition (INH)” value with Staphylococcus aureus [1] was 6.02%; in the data set on Pseudomonas fluorescens [2], 29.07%; with Escherichia coli [3], -51.23%; in the data set with Escherichia coli [5], -32.72%; in the data set on Bacillus subtilis [6], -6.172%; in the data set with Bacillus subtilis [8] it was 19.81%. Further, the “inhibition (INH)” value is 70.55% in data set [9]; -20.73% in the data set with Pseudomonas fluorescens [10]; 7.295% in [11]; 16.21% in the data set with Bacillus subtilis [12]; -4.04% in the data set with Staphylococcus aureus [13]; -7.09% in the data set on Staphylococcus aureus [14]. The “inhibition (INH)” value with Escherichia coli [15] was found to be 32.37%; in data set [18], 75.49%; in data set [19], 30.34%; in data set [20], 64.79%; with Pseudomonas fluorescens [21], 29.13%; in [22], 15.78%.

With `COc1ccc(C2SCC(=O)N2NC(=O)c2cnc(C)cn2)cc1OC` (stereo unspecified), the “inhibition (INH)” value in the data set with Staphylococcus aureus [1] is reported as -14.6%; with Pseudomonas fluorescens [2], -2.69%; in the data set on Escherichia coli [3], -46.22%; in the data set with Escherichia coli [5] it was -59.8%; in the data set with Bacillus subtilis [6] it was 13.25%; with Bacillus subtilis [8], 18.53%. Also, the “inhibition (INH)” value was 72.12% in [9]; -5.41% in the data set with Pseudomonas fluorescens [10]; 9.358% in data set [11]; 14.25% with Bacillus subtilis [12]; 2.4% with Staphylococcus aureus [13]; 48.7% in the data set on Staphylococcus aureus [14]. The “inhibition (INH)” value in the data set with Escherichia coli [15] is reported as -11.14%; in [18] it was 73.51%; in [19], 8.925%; in data set [20], 68.91%; in the data set with Pseudomonas fluorescens [21], 28.51%; in [22], 46.67%.

As to `COc1ccc(C2SCC(=O)N2NC(=O)c2cnc(C)cn2)cc1` (stereo unspecified), the “inhibition (INH)” value was -29.27% with Staphylococcus aureus [1]; -0.838% with Pseudomonas fluorescens [2]; 9.978% in the data set with Escherichia coli [3]; -9.96% in the data set on Escherichia coli [5]; 19.31% with Bacillus subtilis [6]; -8.08% in the data set with Bacillus subtilis [8]. Besides, the “inhibition (INH)” value is on record as 65.76% in data set [9]; 29.02% with Pseudomonas fluorescens [10]; 27.97% in data set [11]; 18.72% with Bacillus subtilis [12]; -29.6% in the data set on Staphylococcus aureus [13]; -9.85% in the data set with Staphylococcus aureus [14]. The “inhibition (INH)” value with Escherichia coli [15] is listed as 17.95%; in [18] it was 71.41%; in data set [19], 46.39%; in data set [20] it was 63.11%; with Pseudomonas fluorescens [21] it was 19.06%; in data set [22], 11.4077%.

As for `COc1ccc([C@H]2SCC(=O)N2NC(=O)c2nccnc2N)cc1OC`, the “inhibition (INH)” value in the data set with Staphylococcus aureus [1] came to 6.63%; with Pseudomonas fluorescens [2], 30.31%; with Escherichia coli [3], 70.93%; in the data set with Escherichia coli [5] it was 50.22%; in the data set with Bacillus subtilis [6], 8.28%; in the data set on Bacillus subtilis [8] it was 22.5%. The “inhibition (INH)” value in data set [9] is given as 70.88%; with Pseudomonas fluorescens [10], 41.19%; in [11], 31.62%; with Bacillus subtilis [12] it was 9.92%; in the data set on Staphylococcus aureus [13], 34.19%; in the data set with Staphylococcus aureus [14], 26.84%. Also, the “inhibition (INH)” value in the data set on Escherichia coli [15] worked out at 4.659%; in data set [18], 90.99%; in data set [19], 50.59%; in data set [20], 50.37%; in the data set on Pseudomonas fluorescens [21] it was 22.77%; in data set [22], 35.96%. The MCC at 96 h in data set [4] was greater than 100 µg/mL. Moreover, the IC50 in the data set with MCF7 is 86.2 µg/mL (≈ 230 µM); in the data set with A549, 80 µg/mL (≈ 213 µM); in [16], greater than 100 µg/mL; in [17] it was 85.4 µg/mL (≈ 228 µM); in [23], 0.718 µg/mL (≈ 1.91 µM). In addition, in data set [7], the MCC at 72 h was greater than 100 µg/mL. In addition, the MCC at 120 h in data set [16] and in [17] was greater than 100 µg/mL throughout. The molecule also came in with an MIC in data set [23] of 25.8 µg/mL (≈ 68.8 µM).

For `CCOc1cc([C@H]2SCC(=O)N2NC(=O)c2nccnc2N)ccc1O`, the “inhibition (INH)” value with Staphylococcus aureus [1] is recorded as -5.22%; with Pseudomonas fluorescens [2] it was -6.51%; with Escherichia coli [3], -48.72%; in the data set with Escherichia coli [5], -9.65%; with Bacillus subtilis [6] it was 22.27%; in the data set on Bacillus subtilis [8], -16.24%. For the same molecule, the “inhibition (INH)” value is 65% in [9]; 40.87% with Pseudomonas fluorescens [10]; -15.9058% in data set [11]; 9.32% in the data set on Bacillus subtilis [12]; 24.55% in the data set with Staphylococcus aureus [13]; 4.98% in the data set with Staphylococcus aureus [14]. Further, the “inhibition (INH)” value in the data set on Escherichia coli [15] is -33.02%; in data set [18], 91.26%; in data set [19], 12.74%; in data set [20] it was 48.5%; in the data set with Pseudomonas fluorescens [21], 20.37%; in data set [22], 38.28%. Moreover, in data set [4], the MCC at 96 h is greater than 100 µg/mL. Moreover, the IC50 in the data set on MCF7 is 80.8 µg/mL (≈ 215 µM); in the data set with A549, 84.2 µg/mL (≈ 224 µM); in data set [16] it was greater than 100 µg/mL; in data set [17] it was 68.9 µg/mL (≈ 183 µM); in [23] it was 3.46 µg/mL (≈ 9.22 µM). The MCC at 72 h in data set [7] was greater than 100 µg/mL. The MCC at 120 h in data set [16] and in data set [17] was greater than 100 µg/mL each time. Besides, the MIC in data set [23] was 28.6 µg/mL (≈ 76.3 µM).

The values above are taken from ChEMBL document CHEMBL3792312, “Synthesis and docking studies of pyrazine-thiazolidinone hybrid scaffold targeting dormant tuberculosis” (Bioorg Med Chem Lett, 2016).
